SMILES strings stand for the structures. Read-outs that look alike come from different tables or passages of the source.

Consider 7 molecules from paper doi:10.1101/2023.03.24.534094v2 (biorxiv, 2023).

For one assay, the target named is T1, EpHB1 (Homo sapiens, UniProt P54762).
T1 sequence (P54762 18-984): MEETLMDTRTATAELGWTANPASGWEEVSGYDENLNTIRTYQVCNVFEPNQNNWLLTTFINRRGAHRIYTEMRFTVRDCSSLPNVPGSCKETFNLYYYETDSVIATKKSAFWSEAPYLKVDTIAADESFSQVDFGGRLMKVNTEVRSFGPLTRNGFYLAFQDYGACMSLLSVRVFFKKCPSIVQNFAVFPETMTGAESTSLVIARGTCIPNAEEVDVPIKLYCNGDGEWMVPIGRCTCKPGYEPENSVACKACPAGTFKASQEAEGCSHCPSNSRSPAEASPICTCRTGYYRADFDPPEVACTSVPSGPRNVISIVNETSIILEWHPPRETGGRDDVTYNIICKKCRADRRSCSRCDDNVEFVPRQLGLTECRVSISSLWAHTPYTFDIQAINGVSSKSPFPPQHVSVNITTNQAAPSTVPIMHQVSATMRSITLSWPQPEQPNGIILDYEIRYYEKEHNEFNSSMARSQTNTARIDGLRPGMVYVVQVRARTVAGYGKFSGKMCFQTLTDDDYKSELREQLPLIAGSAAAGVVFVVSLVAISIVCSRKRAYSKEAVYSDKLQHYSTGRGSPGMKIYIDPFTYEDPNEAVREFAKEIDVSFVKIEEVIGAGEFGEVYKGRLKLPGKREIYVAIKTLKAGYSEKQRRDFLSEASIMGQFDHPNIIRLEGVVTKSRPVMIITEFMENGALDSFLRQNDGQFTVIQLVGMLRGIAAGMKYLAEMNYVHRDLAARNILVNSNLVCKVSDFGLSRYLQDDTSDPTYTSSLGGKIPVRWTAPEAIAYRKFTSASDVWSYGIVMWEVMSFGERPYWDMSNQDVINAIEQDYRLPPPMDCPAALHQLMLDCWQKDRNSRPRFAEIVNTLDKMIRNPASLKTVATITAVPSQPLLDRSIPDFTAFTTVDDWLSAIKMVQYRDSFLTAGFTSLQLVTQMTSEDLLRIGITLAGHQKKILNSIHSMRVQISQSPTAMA
Kind of assay: NanoBRET target engagement. Type of assay: cell-based.

The target of a further assay is CaMK1g (Homo sapiens, UniProt Q96NX5). Kind of assay: biochemical.
The next assay concerns the target T2, DMPK1 (Homo sapiens, UniProt Q09013).
T2 sequence (Q09013 1-629): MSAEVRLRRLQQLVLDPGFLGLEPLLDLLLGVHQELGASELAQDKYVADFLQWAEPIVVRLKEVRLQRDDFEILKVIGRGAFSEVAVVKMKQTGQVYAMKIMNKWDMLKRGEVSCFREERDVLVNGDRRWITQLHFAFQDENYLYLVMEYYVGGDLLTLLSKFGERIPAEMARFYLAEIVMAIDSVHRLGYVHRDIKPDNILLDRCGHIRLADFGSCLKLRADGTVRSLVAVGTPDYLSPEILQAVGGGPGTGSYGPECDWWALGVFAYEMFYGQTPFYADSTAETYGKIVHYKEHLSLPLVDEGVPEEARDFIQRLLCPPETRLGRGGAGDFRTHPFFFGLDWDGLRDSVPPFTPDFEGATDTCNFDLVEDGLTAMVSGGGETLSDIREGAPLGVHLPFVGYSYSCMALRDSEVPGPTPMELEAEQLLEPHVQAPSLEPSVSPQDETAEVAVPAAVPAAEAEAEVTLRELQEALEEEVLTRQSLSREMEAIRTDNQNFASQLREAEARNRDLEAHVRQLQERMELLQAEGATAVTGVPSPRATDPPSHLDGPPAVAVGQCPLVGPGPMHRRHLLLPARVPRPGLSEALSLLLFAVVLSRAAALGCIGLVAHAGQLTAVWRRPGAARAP
Kind of assay: biochemical.

For the next assay, the target named is FGFR1 (Homo sapiens, UniProt P11362). Kind of assay: biochemical.
The target of a further assay is T3, MAP2K7 (Homo sapiens, UniProt O14733).
T3 sequence (O14733 1-419): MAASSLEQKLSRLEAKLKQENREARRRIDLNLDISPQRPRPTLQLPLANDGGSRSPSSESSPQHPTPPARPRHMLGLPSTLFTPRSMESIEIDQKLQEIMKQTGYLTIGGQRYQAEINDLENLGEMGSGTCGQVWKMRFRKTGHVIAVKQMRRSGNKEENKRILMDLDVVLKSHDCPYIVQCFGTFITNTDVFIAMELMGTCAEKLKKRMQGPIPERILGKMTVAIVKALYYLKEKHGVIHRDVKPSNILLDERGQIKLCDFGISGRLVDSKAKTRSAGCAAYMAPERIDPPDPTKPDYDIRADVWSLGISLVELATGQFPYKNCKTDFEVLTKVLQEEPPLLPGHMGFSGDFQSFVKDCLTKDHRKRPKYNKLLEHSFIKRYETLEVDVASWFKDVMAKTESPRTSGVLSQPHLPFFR
In words: biochemical.

Another assay has as its target T4, PHKG2 (Homo sapiens, UniProt P15735).
T4 sequence (P15735 1-406): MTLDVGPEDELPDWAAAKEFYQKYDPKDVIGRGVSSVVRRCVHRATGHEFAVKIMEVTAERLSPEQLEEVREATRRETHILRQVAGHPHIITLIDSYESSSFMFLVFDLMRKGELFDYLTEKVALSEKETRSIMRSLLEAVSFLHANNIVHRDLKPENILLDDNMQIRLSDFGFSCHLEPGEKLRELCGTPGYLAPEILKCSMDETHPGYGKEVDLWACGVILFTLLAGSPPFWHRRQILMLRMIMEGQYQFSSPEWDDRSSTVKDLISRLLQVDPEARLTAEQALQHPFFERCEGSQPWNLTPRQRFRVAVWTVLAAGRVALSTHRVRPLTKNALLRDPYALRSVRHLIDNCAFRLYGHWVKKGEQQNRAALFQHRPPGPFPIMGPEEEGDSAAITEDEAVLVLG
In words: biochemical.

Sequence of FGFR1 (P11362 whole entry): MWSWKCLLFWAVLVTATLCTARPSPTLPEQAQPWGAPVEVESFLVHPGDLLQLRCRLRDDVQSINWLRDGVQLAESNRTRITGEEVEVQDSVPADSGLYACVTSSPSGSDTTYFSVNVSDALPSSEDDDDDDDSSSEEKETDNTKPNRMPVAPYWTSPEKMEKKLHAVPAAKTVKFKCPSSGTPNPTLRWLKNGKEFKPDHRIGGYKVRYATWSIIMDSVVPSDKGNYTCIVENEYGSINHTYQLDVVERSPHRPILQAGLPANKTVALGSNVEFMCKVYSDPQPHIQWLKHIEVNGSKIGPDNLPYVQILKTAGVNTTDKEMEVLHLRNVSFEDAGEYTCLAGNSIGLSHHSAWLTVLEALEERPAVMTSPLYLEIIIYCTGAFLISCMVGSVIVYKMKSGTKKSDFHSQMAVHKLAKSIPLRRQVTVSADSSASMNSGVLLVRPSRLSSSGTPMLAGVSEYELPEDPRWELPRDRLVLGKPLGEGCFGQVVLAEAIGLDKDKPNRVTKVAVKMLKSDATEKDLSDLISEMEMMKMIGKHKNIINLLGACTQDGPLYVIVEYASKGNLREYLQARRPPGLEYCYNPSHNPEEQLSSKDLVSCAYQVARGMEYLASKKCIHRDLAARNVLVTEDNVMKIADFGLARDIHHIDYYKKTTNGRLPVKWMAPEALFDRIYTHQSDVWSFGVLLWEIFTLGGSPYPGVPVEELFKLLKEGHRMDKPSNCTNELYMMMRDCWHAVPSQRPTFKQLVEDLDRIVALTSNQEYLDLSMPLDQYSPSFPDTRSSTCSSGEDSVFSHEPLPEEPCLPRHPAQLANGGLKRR
Sequence of CaMK1g (Q96NX5 whole entry): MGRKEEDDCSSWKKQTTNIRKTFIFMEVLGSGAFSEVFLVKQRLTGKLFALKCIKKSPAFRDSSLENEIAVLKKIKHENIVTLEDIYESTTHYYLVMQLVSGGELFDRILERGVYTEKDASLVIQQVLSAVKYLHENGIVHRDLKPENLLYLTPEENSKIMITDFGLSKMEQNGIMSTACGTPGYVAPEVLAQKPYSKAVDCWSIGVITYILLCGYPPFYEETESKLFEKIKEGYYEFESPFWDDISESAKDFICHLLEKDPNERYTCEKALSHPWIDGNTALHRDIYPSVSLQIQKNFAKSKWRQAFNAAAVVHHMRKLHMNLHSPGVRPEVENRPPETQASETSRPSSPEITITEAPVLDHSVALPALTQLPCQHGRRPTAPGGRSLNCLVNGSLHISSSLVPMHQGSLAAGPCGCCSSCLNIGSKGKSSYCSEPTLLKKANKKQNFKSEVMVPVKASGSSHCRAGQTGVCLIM

Molecule `CNc1ncc2cc(-c3cc(Cl)ccc3Cl)c(=O)n(CCCCN)c2n1` [compound 8, 8-(4-Aminobutyl)-6-(2,5-dichlorophenyl)-2-(methylamino)pyrido[2,3-d]pyrimidin-7(8H)-one] came in with an IC50 at EpHB1 of 0.302 ± 0.026 µM. For the same molecule, the ΔTm at 10 µM stood at 1.1 °C at CaMK1g (read-out: dTm 8); 1.3 °C at DMPK1 (read-out: dTm 8); 3.3 °C on FGFR1 (read-out: dTm 8); 0.6 °C on MAP2K7 (read-out: dTm 8); 1.5 °C on PHKG2 (read-out: dTm 8).
`CNc1ncc2cc(-c3ccccc3Cl)c(=O)n(CCCCN)c2n1` [compound 4, 8-(4-Aminobutyl)-6-(2-chlorophenyl)-2-(methylamino)pyrido[2,3-d]pyrimidin-7(8H)-one] yielded an IC50 against EpHB1 of 0.078 ± 0.002 µM.
As for `CNc1ncc2cc(-c3cc(Br)ccc3Br)c(=O)n(CCCCN)c2n1` [compound 11, 8-(4-Aminobutyl)-6-(2,5-dibromophenyl)-2-(methylamino)pyrido[2,3-d]pyrimidin-7(8H)-one], the ΔTm at 10 µM turned out to be 0.8 °C at CaMK1g (read-out: dTm 11); 1.7 °C on DMPK1 (read-out: dTm 11); 3 °C on FGFR1 (read-out: dTm 11); 0.5 °C on MAP2K7 (read-out: dTm 11); 0.6 °C on PHKG2 (read-out: dTm 11).
`CNc1ncc2cc(-c3cc(F)ccc3F)c(=O)n(CCCCN)c2n1` [compound 5, 8-(4-Aminobutyl)-6-(2,5-difluorophenyl)-2-(methylamino)pyrido[2,3-d]pyrimidin-7(8H)-one] showed an IC50 at EpHB1 (intact mode, HEK293T, 37 °C, 2 h, tracer displacement) of 0.632 ± 0.01 µM.
As to `CNc1ncc2cc(-c3cc(C(F)(F)F)ccc3Cl)c(=O)n(CCCCN)c2n1` [compound 9, 8-(4-Aminobutyl)-6-(2-chloro-5-(trifluoromethyl)phenyl)-2-(methylamino)pyrido[2,3-d]pyrimidin-7(8H)-one], the ΔTm at 10 µM on CaMK1g (read-out: dTm 9) was 0.6 °C; at DMPK1 (read-out: dTm 9), 1.4 °C; at FGFR1 (read-out: dTm 9), 1.2 °C; on MAP2K7 (read-out: dTm 9), 0.4 °C; at PHKG2 (read-out: dTm 9) it was 0.5 °C.
As to `CNc1ncc2cc(-c3cc(F)c(-c4cccc(C)n4)cc3F)c(=O)n(CCCCN)c2n1` [compound 12, 8-(4-Aminobutyl)-6-(2,5-difluoro-4-(6-methylpyridin-2-yl)phenyl)-2-(methylamino)pyrido[2,3-d]pyrimidin-7(8H)-one], the ΔTm at 10 µM was 3.4 °C on CaMK1g (read-out: dTm 12); -0.1 °C on DMPK1 (read-out: dTm 12); 0.6 °C on FGFR1 (read-out: dTm 12); 1.7 °C on MAP2K7 (read-out: dTm 12); 1.5 °C on PHKG2 (read-out: dTm 12).
On to `CNc1ncc2cc(-c3cc(Cl)ccc3Br)c(=O)n(CCCCN)c2n1` [compound 10, 8-(4-Aminobutyl)-6-(2-bromo-5-chlorophenyl)-2-(methylamino)pyrido[2,3-d]pyrimidin-7(8H)-one], for which the ΔTm at 10 µM on CaMK1g (read-out: dTm 10) is 0.7 °C; at DMPK1 (read-out: dTm 10), 1.8 °C; at FGFR1 (read-out: dTm 10), 2.9 °C; on MAP2K7 (read-out: dTm 10), 0.4 °C; at PHKG2 (read-out: dTm 10), 1.3 °C.
